# Results from PubChem BioAssay AID200 (DTP/NCI, 2004).
# Values joined by “and” are separate entries in the source; they are usually repeats but may differ in a detail not shown here. Identical values can stand only once. Inconclusive results and toxic doses are left out.
# System: B6C3F1 mice, B16 melanoma ip, median survival T/C
# Assay: NCI In Vivo Anticancer Drug Screen. Data for tumor model B16 Melanoma (intraperitoneal) in B6C3F1 mice
# Conditions: endpoint: median survival time, higher = longer survival
# Method in brief: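 Values are T/C ratios: the measurement in treated animals divided by that in vehicle-treated controls, using survival or tumor size in mice carrying transplantable tumors.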
# [1] = dose: 3.12 mg/kg/injection, schedule: Q01DX009 (ip), vehicle: saline
# [2] = dose: 6.25 mg/kg/injection, schedule: Q01DX009 (ip), vehicle: saline
# [3] = dose: 12.5 mg/kg/injection, schedule: Q01DX009 (ip), vehicle: saline
# [4] = dose: 25.0 mg/kg/injection, schedule: Q01DX009 (ip), vehicle: saline
# [5] = dose: 50.0 mg/kg/injection, schedule: Q01DX009 (ip), vehicle: saline
# [6] = dose: 100.0 mg/kg/injection, schedule: Q01DX009 (ip), vehicle: saline
# [7] = dose: 6.25 mg/kg/injection, schedule: Q01DX009 (ip), vehicle: saline with Tween-80
# [8] = dose: 12.5 mg/kg/injection, schedule: Q01DX009 (ip), vehicle: saline with Tween-80
# [9] = dose: 25.0 mg/kg/injection, schedule: Q01DX009 (ip), vehicle: saline with Tween-80
# [10] = dose: 50.0 mg/kg/injection, schedule: Q01DX009 (ip), vehicle: saline with Tween-80
# [11] = dose: 200.0 mg/kg/injection, schedule: Q01DX009 (ip), vehicle: saline
# [12] = dose: 400.0 mg/kg/injection, schedule: Q01DX009 (ip), vehicle: saline
structure (smiles),measurement,setting,value
FC(F)(F)c1ccc2c(c1)N(CCCN1CCN(CCN3CCCCC3)CC1)c1ccccc1S2,T/C,"dose: 0.78 mg/kg/injection, schedule: Q01DX009 (ip), vehicle: saline",94 % of control
same,T/C,"dose: 1.56 mg/kg/injection, schedule: Q01DX009 (ip), vehicle: saline",109 % of control and 89 % of control
same,T/C,[1],118 % of control and 99 % of control
same,T/C,[2],99 % of control and 101 % of control
same,T/C,[3],98 % of control
same,T/C,[4],94 % of control
CCC(C)C(NC(=O)OCC1c2ccccc2-c2ccccc21)C(=O)O (configuration not stated),T/C,"dose: 100.0 mg/kg/injection, schedule: Q01DX009 (ip), vehicle: Klucel (hydroxypropylcellulose) (HPC)",101 % of control and 102 % of control
same,T/C,"dose: 200.0 mg/kg/injection, schedule: Q01DX009 (ip), vehicle: Klucel (hydroxypropylcellulose) (HPC)",98 % of control and 100 % of control
CN1[C@@H](CC(=O)c2ccccc2)CCC[C@H]1CC(=O)c1ccccc1,T/C,[4],104 % of control
same,T/C,[5],112 % of control
same,T/C,[6],98 % of control
O=Cc1c(O)c2ccccc2[nH]c1=O,T/C,[7],109 % of control and 107 % of control
same,T/C,[8],108 % of control and 105 % of control
same,T/C,[9],119 % of control
NC(=O)c1cc(Cl)nc2nc(Cl)nc(N)c12,T/C,[9],92 % of control
same,T/C,[10],101 % of control
same,T/C,"dose: 100.0 mg/kg/injection, schedule: Q01DX009 (ip), vehicle: saline with Tween-80",86 % of control
same,T/C,"dose: 200.0 mg/kg/injection, schedule: Q01DX009 (ip), vehicle: saline with Tween-80",98 % of control
same,T/C,"dose: 400.0 mg/kg/injection, schedule: Q01DX009 (ip), vehicle: saline with Tween-80",106 % of control
CC(C)=CCN1C(=O)c2ccccc2C1=O,T/C,[6],104 % of control
same,T/C,[11],102 % of control
same,T/C,[12],94 % of control
O=C1c2ccc(Br)cc2-c2cc(Br)ccc21,T/C,[7],98 % of control
same,T/C,[8],98 % of control
same,T/C,[9],93 % of control
COc1cccc2c1C(=O)c1c(O)c3c(c(O)c1C2=O)C[C@@](O)(c1csc(N)n1)C[C@@H]3OC1CC(N)C(O)C(C)O1 (some centres not stated),T/C,"dose: 25.0 mg/kg/injection, schedule: Q01DX001 (ip), vehicle: water",154 % of control
O=S(O)O,T/C,[5],107 % of control
same,T/C,[6],115 % of control
same,T/C,[11],98 % of control
same,T/C,[12],102 % of control
CCCCCCCCCCCCCCCC[N+]1(C)CCN(SN2CC[N+](C)(CCCCCCCCCCCCCCCC)CC2)CC1,T/C,[3],96 % of control
same,T/C,[4],100 % of control
same,T/C,[10],89 % of control
O=NN(CCCl)C(=O)Oc1cc(Cl)c(Cl)cc1Cl,T/C,"dose: 3.12 mg/kg/injection, schedule: Q01DX009 (ip), vehicle: Klucel (hydroxypropylcellulose) (HPC)",99 % of control
same,T/C,"dose: 6.25 mg/kg/injection, schedule: Q01DX009 (ip), vehicle: Klucel (hydroxypropylcellulose) (HPC)",99 % of control
same,T/C,"dose: 12.5 mg/kg/injection, schedule: Q01DX009 (ip), vehicle: Klucel (hydroxypropylcellulose) (HPC)",188 % of control
same,T/C,"dose: 25.0 mg/kg/injection, schedule: Q01DX009 (ip), vehicle: Klucel (hydroxypropylcellulose) (HPC)",169 % of control and 205 % of control
CNC(=O)O/N=C(\CN=[N+]=[N-])C(C)(C)C,T/C,"dose: 0.12 mg/kg/injection, schedule: Q01DX009 (ip), vehicle: saline",104 % of control
same,T/C,"dose: 0.25 mg/kg/injection, schedule: Q01DX009 (ip), vehicle: saline",99 % of control
same,T/C,"dose: 0.5 mg/kg/injection, schedule: Q01DX009 (ip), vehicle: saline",118 % of control
same,T/C,"dose: 1.0 mg/kg/injection, schedule: Q01DX009 (ip), vehicle: saline",101 % of control
C/C(=N\NC(=O)c1ccncc1)c1ccc(Cl)cc1,T/C,"dose: 1.25 mg/kg/injection, schedule: Q01DX009 (ip), vehicle: saline",96 % of control
same,T/C,"dose: 2.5 mg/kg/injection, schedule: Q01DX009 (ip), vehicle: saline",98 % of control
same,T/C,"dose: 5.0 mg/kg/injection, schedule: Q01DX009 (ip), vehicle: saline",107 % of control
CC[n+]1c(-c2ccccc2)c2cc(N)ccc2c2ccc(N)cc21,T/C,"dose: 0.75 mg/kg/injection, schedule: Q01DX009 (ip), vehicle: water",97 % of control
same,T/C,"dose: 1.5 mg/kg/injection, schedule: Q01DX009 (ip), vehicle: water",104 % of control
same,T/C,"dose: 3.0 mg/kg/injection, schedule: Q01DX009 (ip), vehicle: water",117 % of control and 97 % of control
same,T/C,"dose: 6.0 mg/kg/injection, schedule: Q01DX009 (ip), vehicle: water",118 % of control
same,T/C,"dose: 12.0 mg/kg/injection, schedule: Q01DX009 (ip), vehicle: water",154 % of control
CCCCCCCCCCCCCCCCCC(=O)OCC(=O)OCC(=O)[C@]1(O)Cc2c(O)c3c(c(O)c2[C@@H](OC2CC(N)C(O)C(C)O2)C1)C(=O)c1c(OC)cccc1C3=O (some centres not stated),T/C,"dose: 0.75 mg/kg/injection, schedule: Q01DX009 (ip), vehicle: saline",160 % of control and 211 % of control
same,T/C,"dose: 1.5 mg/kg/injection, schedule: Q01DX009 (ip), vehicle: saline",208 % of control and 333 % of control
same,T/C,"dose: 3.0 mg/kg/injection, schedule: Q01DX009 (ip), vehicle: saline",255 % of control and 333 % of control
same,T/C,"dose: 6.0 mg/kg/injection, schedule: Q01DX009 (ip), vehicle: saline",238 % of control and 333 % of control
c1cc(-c2cc3ccc(C4=NCCN4)cc3[nH]2)ccc1C1=NCCN1,T/C,[1],111 % of control
same,T/C,"dose: 3.12 mg/kg/injection, schedule: Q01DX009 (ip), vehicle: suspension in saline",104 % of control
same,T/C,[2],108 % of control
same,T/C,"dose: 6.25 mg/kg/injection, schedule: Q01DX009 (ip), vehicle: suspension in saline",94 % of control
same,T/C,[3],100 % of control
same,T/C,"dose: 12.5 mg/kg/injection, schedule: Q01DX009 (ip), vehicle: suspension in saline",96 % of control
same,T/C,[4],95 % of control
C=C(OC)C(Nc1cc(OC)c(OC)cc1C(=O)OC1CC(O[C@@H]2C(=O)C(NC(=O)OC)=C3/C(=C\CSSSC)[C@]2(O)C#C/C=C\C#C[C@@H]3OC2OC(C)C(NOC3CC(O)C(SC)C(C)O3)C(O)C2OC2CC(OC)C(NCCC)CO2)OC(C)C1O)OC (some centres not stated),T/C,"dose: 0.16 micrograms/kg/injection, schedule: Q01DX009 (ip), vehicle: saline + alcohol",191 % of control
same,T/C,"dose: 0.32 micrograms/kg/injection, schedule: Q01DX009 (ip), vehicle: saline + alcohol",162 % of control
same,T/C,"dose: 0.63 micrograms/kg/injection, schedule: Q01DX009 (ip), vehicle: saline + alcohol",170 % of control
same,T/C,"dose: 2.5 nanograms/kg/injection, schedule: Q01DX009 (ip), vehicle: saline + alcohol",119 % of control
same,T/C,"dose: 4.0 nanograms/kg/injection, schedule: Q01DX009 (ip), vehicle: saline + alcohol",93 % of control
same,T/C,"dose: 5.0 nanograms/kg/injection, schedule: Q01DX009 (ip), vehicle: saline + alcohol",109 % of control
same,T/C,"dose: 14.0 nanograms/kg/injection, schedule: Q01DX009 (ip), vehicle: saline + alcohol",102 % of control
same,T/C,"dose: 20.0 nanograms/kg/injection, schedule: Q01DX009 (ip), vehicle: saline + alcohol",155 % of control
same,T/C,"dose: 24.0 nanograms/kg/injection, schedule: Q01DX009 (ip), vehicle: saline + alcohol",103 % of control
same,T/C,"dose: 40.0 nanograms/kg/injection, schedule: Q01DX009 (ip), vehicle: saline + alcohol",219 % of control and 101 % of control
same,T/C,"dose: 66.67 nanograms/kg/injection, schedule: Q01DX009 (ip), vehicle: saline + alcohol",96 % of control
same,T/C,"dose: 111.11 nanograms/kg/injection, schedule: Q01DX009 (ip), vehicle: saline + alcohol",97 % of control
CSC1SCC2C(=O)N(C)C(C(C)C)C(=O)OCC(NC(=O)c3cnc4ccccc4n3)C(=O)NC(C)C(=O)N(C)C1C(=O)N(C)C(C(C)C)C(=O)OCC(NC(=O)c1cnc3ccccc3n1)C(=O)NC(C)C(=O)N2C (configuration not stated),T/C,"dose: 15.0 micrograms/kg/injection, schedule: Q01DX009 (ip), vehicle: saline with Tween-80",106 % of control
same,T/C,"dose: 30.0 micrograms/kg/injection, schedule: Q01DX009 (ip), vehicle: saline",176 % of control
same,T/C,"dose: 32.0 micrograms/kg/injection, schedule: Q01DX009 (ip), vehicle: saline",176 % of control
same,T/C,"dose: 60.0 micrograms/kg/injection, schedule: Q01DX009 (ip), vehicle: saline with Tween-80",121 % of control
same,T/C,"dose: 60.0 micrograms/kg/injection, schedule: Q01DX009 (ip), vehicle: saline",172 % of control
same,T/C,"dose: 64.0 micrograms/kg/injection, schedule: Q01DX009 (ip), vehicle: saline",176 % of control
same,T/C,"dose: 120.0 micrograms/kg/injection, schedule: Q01DX009 (ip), vehicle: saline",209 % of control
same,T/C,"dose: 128.0 micrograms/kg/injection, schedule: Q01DX009 (ip), vehicle: saline",187 % of control
same,T/C,"dose: 240.0 micrograms/kg/injection, schedule: Q01DX009 (ip), vehicle: saline",181 % of control
same,T/C,"dose: 480.0 micrograms/kg/injection, schedule: Q01DX009 (ip), vehicle: saline with Tween-80",170 % of control
